Source: US9381683B2, “Films and methods of manufacture” (priority 2011, dated 2016)

What was measured:
[1] = Water solubility; type: physicochemical
From the text: In vitro testing has shown that due to its poor water solubility, triclosan is released from these films only slowly over […] period, with minimal initial burst release.

[2] = Stability of gentamicin sulfate to manufacturing conditions (heat, organic solvents); type: physicochemical
From the text: In one embodiment, the drug selected must be stable during the manufacturing processes required to fabricate the implant.

Row | Compound | water solubility [1] | thermal stability (thermally stable above) [2] | stability to organic solvents ([2]; organic solvents including DMSO)
1 | Oc1cc(Cl)ccc1Oc1ccc(Cl)cc1Cl [triclosan, 2,4,4′-trichloro-2′-hydroxydiphenyl ether] | poor | – | –
2 | Gentamicin sulfate | – | above 100 °C | stable
